According to patent US10323022B2, “Pyrrolidinyl urea, pyrrolidinyl thiourea and pyrrolidinyl guanidine compounds as TrkA kinase inhibitors” (Array BioPharma Inc., priority 2011, dated 2019):

Target: TrkA (Homo sapiens (Human), UniProt P04629)
Assay: TrkA Omnia Assay
Assay type: biochemical
Conditions: averaged IC50; 20 nM enzyme, 500 μM ATP, 10 μM peptide substrate
Outline: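 Continuous fluorescent kinase read-out (ex 360 nm, em 485 nm) over 70 min, with initial rates fitted to 4- or 5-parameter logistic curves for IC50. Final conditions: 500 μM ATP, 10 μM Omnia Tyr Peptide #4, 20 nM TrkA, MOPS pH 7.5 buffer with MgCl2 and Triton X-100; enzyme and compound preincubated 10 min at ambient temperature.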

TrkA, sequence (P04629 33-796): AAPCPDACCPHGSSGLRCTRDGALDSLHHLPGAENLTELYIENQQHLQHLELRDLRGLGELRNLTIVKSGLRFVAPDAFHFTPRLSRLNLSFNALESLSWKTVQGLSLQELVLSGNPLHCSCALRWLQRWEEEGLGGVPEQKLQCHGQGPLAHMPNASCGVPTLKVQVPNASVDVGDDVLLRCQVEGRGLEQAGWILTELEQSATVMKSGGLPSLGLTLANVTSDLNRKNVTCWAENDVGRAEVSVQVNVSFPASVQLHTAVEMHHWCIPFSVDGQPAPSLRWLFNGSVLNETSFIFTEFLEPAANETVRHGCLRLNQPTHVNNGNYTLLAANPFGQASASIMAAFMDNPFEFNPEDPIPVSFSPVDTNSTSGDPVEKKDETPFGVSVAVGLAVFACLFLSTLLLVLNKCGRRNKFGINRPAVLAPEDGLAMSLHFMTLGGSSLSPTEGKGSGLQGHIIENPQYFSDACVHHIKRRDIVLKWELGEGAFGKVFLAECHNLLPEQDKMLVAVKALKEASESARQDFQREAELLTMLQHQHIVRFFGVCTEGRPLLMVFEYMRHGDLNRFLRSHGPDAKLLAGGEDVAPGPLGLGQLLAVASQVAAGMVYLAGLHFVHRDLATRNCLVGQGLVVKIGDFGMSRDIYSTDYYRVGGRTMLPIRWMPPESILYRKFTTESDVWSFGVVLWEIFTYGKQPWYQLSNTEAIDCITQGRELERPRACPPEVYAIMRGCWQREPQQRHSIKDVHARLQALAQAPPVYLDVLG

Row | SMILES | IC50 [nM]
1 | N#CCN1C[C@@H](NC(=O)Nc2c3c(nn2-c2ccccc2)CCC3)[C@H](c2ccccc2)C1 [Example 189, 1-((3S,4R)-1-(cyanomethyl)-4-phenylpyrrolidin-3-yl)-3-(2-phenyl-2,4,5,6-tetrahydrocyclopenta[c]pyrazol-3-yl)urea] | 100 to 1000
2 | O=C(Nc1c2c(nn1-c1ccccc1)CCC2)N[C@@H]1CN(CC(F)(F)F)C[C@H]1c1ccccn1 (relative stereo) [Example 209, 1-(2-phenyl-2,4,5,6-tetrahydrocyclopenta[c]pyrazol-3-yl)-3-((trans)-4-(pyridin-2-yl)-1-(2,2,2-trifluoroethyl)pyrrolidin-3-yl)urea] | 100 to 1000
3 | COCCN1C[C@@H](NC(=O)Nc2cc(-c3cccc(F)c3)nn2C)[C@H](c2ccc(F)c(F)c2)C1 [Example 114, 1-((3S,4R)-4-(3,4-difluorophenyl)-1-(2-methoxyethyl)pyrrolidin-3-yl)-3-(3-(3-fluoro-phenyl)-1-methyl-1H-pyrazol-5-yl)urea] | < 100
4 | COCCN1C[C@@H](NC(=O)Nc2c(C)c(C(F)(F)CO)nn2-c2ccccc2)[C@H](c2cc(F)cc(F)c2)C1 [Example 283, 1-(3-(1,1-difluoro-2-hydroxyethyl)-4-methyl-1-phenyl-1H-pyrazol-5-yl)-3-((3S,4R)-4-(3,5-difluorophenyl)-1-(2-methoxyethyl)pyrrolidin-3-yl)urea] | < 100
5 | COCCN1C[C@@H](NC(=O)Nc2c(C)c(OCCO)nn2-c2ccccc2)[C@H](c2cc(F)cc(F)c2)C1 [Example 149, 1-((3S,4R)-4-(3,5-difluorophenyl)-1-(2-methoxyethyl)pyrrolidin-3-yl)-3-(3-(2-hydroxy-ethoxy)-4-methyl-1-phenyl-1H-pyrazol-5-yl)urea] | < 100
6 | O=C(Nc1c2c(nn1-c1ccccc1)CCC2)N[C@@H]1CN(Cc2csnn2)C[C@H]1c1ccc(F)c(F)c1 [Example 248, 1-((3S,4R)-1-((1,2,3-thiadiazol-4-yl)methyl)-4-(3,4-difluorophenyl)pyrrolidin-3-yl)-3-(2-phenyl-2,4,5,6-tetrahydrocyclopenta[c]pyrazol-3-yl)urea] | < 100
7 | COCCN1C[C@@H](NC(=O)Nc2c(C(C)C)c(-c3cnn(C)c3)nn2-c2ccccc2)[C@H](c2ccc(F)c(F)c2)C1 [Example 310, 1-((3S,4R)-4-(3,4-difluorophenyl)-1-(2-methoxyethyl)pyrrolidin-3-yl)-3-(4-isopropyl-1′-methyl-1-phenyl-1H,1′H-[3,4′-bipyrazol]-5-yl)urea] | 100 to 1000
8 | O=C(Nc1c2c(nn1-c1ccccc1)CCC2)N[C@@H]1CN(CCOC(F)(F)F)C[C@H]1c1ccccc1 (relative stereo) [Example 182, 1-(trans-4-phenyl-1-(2-(trifluoromethoxy)ethyl)pyrrolidin-3-yl)-3-(2-phenyl-2,4,5,6-tetrahydrocyclopenta[c]pyrazol-3-yl)urea] | < 100
9 | COCCN1C[C@@H](NC(=O)Nc2c(C)c(OCCF)nn2-c2ccccc2)[C@H](c2ccc(F)c(F)c2)C1 [Example 144, 1-((3S,4R)-4-(3,4-difluorophenyl)-1-(2-methoxyethyl)pyrrolidin-3-yl)-3-(3-(2-fluoro-ethoxy)-4-methyl-1-phenyl-1H-pyrazol-5-yl)urea] | < 100
10 | CCOc1nn(-c2ccccc2)c(NC(=O)N[C@@H]2CN([C@@H](COC)C(F)(F)F)C[C@H]2c2ccc(F)c(F)c2)c1C [Example 276, 1-((3S,4R)-4-(3,4-difluorophenyl)-1-((S)-1,1,1-trifluoro-3-methoxypropan-2-yl)pyrrolidin-3-yl)-3-(3-ethoxv-4-methyl-1-phenyl-1H-pyrazol-5-yl)urea] | < 100
11 | O=C(Nc1c2c(nn1-c1ccccc1)CCC2)N[C@@H]1CN(Cc2ncc[nH]2)C[C@H]1c1ccccc1 (relative stereo) [Example 257, 1-((trans)-1-((1H-imidazol-2-yl)methyl)-4-phenylpyrrolidin-3-yl)-3-(2-phenyl-2,4,5,6-tetrahydrocyclopenta[c]pyrazol-3-yl)urea] | 100 to 1000
12 | O=C(Nc1c2c(nn1-c1ccccc1)CCC2)N[C@@H]1CN(CC(F)(F)F)C[C@H]1c1ccc(Cl)cc1 (relative stereo) [Example 211, 1-((trans)-4-(4-chlorophenyl)-1-(2,2,2-trifluoroethyl)pyrrolidin-3-yl)-3-(2-phenyl-2,4,5,6-tetrahydrocyclopenta[c]pyrazol-3-yl)urea] | < 100
13 | COCCN1C[C@@H](NC(=O)Nc2c(C)c(OCC3COC3)nn2-c2ccccc2)[C@H](c2ccc(F)c(F)c2)C1 [Example 74, 1-((3S,4R)-4-(3,4-difluorophenyl)-1-(2-methoxyethyl)pyrrolidin-3-yl)-3-(4-methyl-3-(oxetan-3-ylmethoxy)-1-phenyl-1H-pyrazol-5-yl)urea] | < 100
14 | COCCN1C[C@@H](NC(=O)Nc2c3c(nn2-c2cccc(F)c2)CCC3)[C@H](c2ccccc2)C1 (relative stereo) [Example 22, 1-(2-(3-fluorophenyl)-2,4,5,6-tetrahydrocyclopenta[c]pyrazol-3-yl)-3-(trans-1-(2-methoxyethyl)-4-phenylpyrrolidin-3-yl)urea] | < 100

Second part, the compound after the results:

Row | IC50 [nM] | SMILES
15 | 100 to 1000 | COCCN1C[C@@H](NC(=O)Nc2c(Cl)c([C@@H]3CCCN3C(=O)OC(C)(C)C)nn2-c2ccccc2)[C@H](c2ccc(F)c(F)c2)C1 [Example 573, (S)-tert-butyl 2-(4-chloro-5-(3-((3S,4R)-4-(3,4-difluorophenyl)-1-(2-methoxyethyl)pyrrolidin-3-yl)ureido)-1-phenyl-1H-pyrazol-3-yl)pyrrolidine-1-carboxylate]
16 | 100 to 1000 | CCOc1nn(-c2ccccc2)c(NC(=O)N[C@@H]2CN(CCOC)C[C@H]2c2ccc(F)c(F)c2)c1NC(=O)C(F)(F)F [Example 548, N-(5-(3-((3S,4R)-4-(3,4-difluorophenyl)-1-(2-methoxyethyl)pyrrolidin-3-yl)ureido)-3-ethoxy-1-phenyl-1H-pyrazol-4-yl)-2,2,2-trifluoroacetamide]
17 | < 100 | COCCN1C[C@@H](NC(=O)Nc2c(Br)c(C(C)(C)C#N)nn2-c2ccccc2)[C@H](c2ccc(F)c(F)c2)C1 [Example 417, 1-(4-bromo-3-(2-cyanopropan-2-yl)-1-phenyl-1H-pyrazol-5-yl)-3-((3S,4R)-4-(3,4-difluorophenyl)-1-(2-methoxyethyl)pyrrolidin-3-yl)urea]
18 | < 100 | COCCN1C[C@@H](NC(=O)Nc2c(C)c(-c3cccnc3)nn2-c2ccccc2)[C@H](c2ccc(F)c(F)c2)C1 [Example 486, 1-((3S,4R)-4-(3,4-difluorophenyl)-1-(2-methoxyethyl)pyrrolidin-3-yl)-3-(4-methyl-1-phenyl-3-(pyridin-3-yl)-1H-pyrazol-5-yl)urea]
19 | < 100 | COCCN1C[C@@H](NC(=O)Nc2c(Cl)c(-c3c(C)noc3C)nn2-c2ccccc2)[C@H](c2ccc(F)c(F)c2)C1 [Example 571, 1-(4-chloro-3-(3,5-dimethylisoxazol-4-yl)-1-phenyl-1H-pyrazol-5-yl)-3-((3S,4R)-4-(3,4-difluorophenyl)-1-(2-methoxyethyl)pyrrolidin-3-yl)urea]
20 | < 100 | COCCN1C[C@@H](NC(=O)Nc2c(Cl)c(OC[C@@H](C)O)nn2-c2ccccc2)[C@H](c2ccc(F)c(F)c2)C1 [Example 372, 1-(4-chloro-3-((R)-2-hydroxypropoxy)-1-phenyl-1H-pyrazol-5-yl)-3-((3S,4R)-4-(3,4-difluorophenyl)-1-(2-methoxyethyl)pyrrolidin-3-yl)urea]
21 | < 100 | COCCN1C[C@@H](NC(=O)Nc2c(Br)c(-c3cccnc3)nn2-c2ccccc2)[C@H](c2ccc(F)c(F)c2)C1 [Example 483, 1-(4-bromo-1-phenyl-3-(pyridin-3-yl)-1H-pyrazol-5-yl)-3-((3 S,4R)-4-(3,4-difluorophenyl)-1-(2-methoxyethyl)pyrrolidin-3-yl)urea]
22 | 100 to 1000 | COCCN1C[C@@H](NC(=O)Nc2c(-c3ccccc3)nn(C(C)C)c2C)[C@H](c2cc(F)cc(F)c2)C1 [Example 642, 1-((3S,4R)-4-(3,5-difluorophenyl)-1-(2-methoxyethyl)pyrrolidin-3-yl)-3-(1-isopropyl-5-methyl-3-phenyl-1H-pyrazol-4-yl)urea]
23 | < 100 | COCCN1C[C@@H](NC(=O)Nc2c(Cl)c(C3CCOCC3)nn2-c2ccccc2)[C@H](c2ccc(F)cc2)C1 [Example 570, 1-(4-chloro-1-phenyl-3-(tetrahydro-2H-pyran-4-yl)-1H-pyrazol-5-yl)-3-((3S,4R)-4-(4-fluorophenyl)-1-(2-methoxyethyl)pyrrolidin-3-yl)urea]
24 | < 100 | CCOc1nn(-c2ccccc2)c(NC(=O)N[C@@H]2CN(CCOC)C[C@H]2c2ccc(F)c(F)c2)c1N [Example 549, 1-(4-amino-3-ethoxy-1-phenyl-1H-pyrazol-5-yl)-3-((3S,4R)-4-(3,4-difluorophenyl)-1-(2-methoxyethyl)pyrrolidin-3-yl)urea]
25 | < 100 | COCCN1C[C@@H](NC(=O)Nc2c(Br)c(OCC(C)(C)O)nn2-c2ccccc2)[C@H](c2ccc(F)c(F)c2)C1 [Example 358, 1-(4-bromo-3-(2-hydroxy-2-methylpropoxy)-1-phenyl-1H-pyrazol-5-yl)-3-((3S,4R)-4-(3,4-difluorophenyl)-1-(2-methoxyethyl)pyrrolidin-3-yl)urea]
26 | < 100 | COCCN1C[C@@H](NC(=O)Nc2c(C)c(-c3cnn(C)c3)nn2-c2ccccc2)[C@H](c2ccc(F)cc2)C1 [Example 441, 1-(1′,4-dimethyl-1-phenyl-1H, 1′H-[3,4′-bipyrazol]-5-yl)-3-((3S,4R)-4-(4-fluorophenyl)-1-(2-methoxyethyl)pyrrolidin-3-yl)urea]
27 | < 100 | COCCN1C[C@@H](NC(=O)Nc2c(C)c(=O)[nH]n2-c2ccccc2)[C@H](c2cccc(F)c2)C1 [Example 613, 1-((3S,4R)-4-(3-fluorophenyl)-1-(2-methoxyethyl)pyrrolidin-3-yl)-3-(4-methyl-5-oxo-2-phenyl-2,5-dihydro-1H-pyrazol-3-yl)urea]
